Holding throughout (assay type): cell-based
In assay [1] the test system is AMO-1. Kind of assay: Anti-proliferative effect in AMO-1 cells, CellTiter-Glo (Assay 7). In a few lines:
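Cells were plated and incubated overnight at 37 °C alongside a day 0 reference plate, then exposed to compound for 72 h. Viability was read by CellTiter-Glo luminescence, and IC50s were calculated using day 0 values and DMSO controls as references.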

Assay [2] has as its system HMC-1-8. Kind of assay: Anti-proliferative effect in HMC-1-8 cells, CellTiter-Glo (Assay 7). The procedure: (§1) Assessment of the Anti-Proliferative Effect of Compounds in Different Cell Lines
(§2) The impact of compounds on the proliferation of different cell lines was assessed using the CellTiter-Glo® Luminescent Cell Viability reagent from Promega (G7573).
(§3) In parallel, cells were plated in a reference (day 0) plate for time zero determination. Cells were incubated in a humidified incubator at 37° C. overnight.
(§4) Rim wells were excluded. The cells were incubated for 72 hours in a humidified incubator at 37° C. The day 0 plate was measured by adding 30 μL/well of CTG solution (CellTiter-Glo® Luminescent Cell Viability reagent, Promega G7573) to time zero wells in the reference plate followed by a 10 minutes incubation and luminescence reading at 0.1 ms. using the PHERAstar FS microplate reader (BMG Labtech).
(§5) After 72 hours incubation, the treated plates were measured in the same way as the day 0 plate mentioned above. The Bella DRC Master Sheet was used to calculate IC50s, with CI=day 0 values and C0=DMSO control values.

Assay [3] has as its system SUDHL10. Kind of assay: Anti-proliferative effect in SUDHL10 cells, CellTiter-Glo (Assay 7). The settings on record: median, read-out: Antiproli SUDHL10 [M] (median). The procedure:
as §1, §2, §3, §4, §5
(In general: In ATP-based viability assays light output follows the ATP content of the culture.)

Where [4] appears, read: AMO-1, 72 hours incubation, CellTiter-Glo; several values per example; read-out: Antiproli AMO-1.
The mark [5] stands for this setting: Homo sapiens, AMO1, 72 h, AMO-1, 72 hours incubation, CellTiter-Glo; several values per example; read-out: Antiproli AMO-1.
Where [6] appears, read: read-out: Antiproli AMO-1; AMO-1, 72 hours incubation, CellTiter-Glo; several values per example.
Setting [7] is: read-out: Antiproli HMC-1-8, HMC-1-8, 72 hours incubation.

Each structure is given as a SMILES string. “And” between values parts separate entries of the source, which are not always exact repeats. Equal values may be shown once. Where a name gives a salt, the structure may show the parent alone. Read-outs that look alike come from different tables or passages of the source.

On to `CCc1nn(C)c2c1-c1c(Cl)ccc3c(CCCOc4cccc5cc(F)ccc45)c(C(=O)O)n(c13)Cc1ccccc1COC2` (single isomer, unassigned; enantiomer 1) [Example 58, (+)-3-Chloro-4-ethyl-17-{3-[(6-fluoronaphthalen-1-yl)oxy]propyl}-6-methyl-6,7,9,14-tetrahydro-indolo[7,1-fg]pyrazolo[3,4-d][2,8]benzoxazacycloundecine-16-carboxylic acid-N-ethylethanamine Salt (Enantiomer 1)], for which the IC50 amounted to 1.61 µM in assay [1] (setting [4]) and 3.87 µM in assay [2] (HMC-1-8, 72 hours incubation, read-out: Antiproli HMC-1-8).
Take `Cc1c2c(nn1C)COCc1ccccc1Cn1c(C(=O)O)c(CCCOc3cccc4cc(F)ccc34)c3ccc(Cl)c-2c31` (single isomer, unassigned; enantiomer 1) [Example 49, (−)-3-Chloro-17-{3-[(6-fluoronaphthalen-1-yl)oxy]propyl}-4,5-dimethyl-5,7,9,14-tetrahydroindolo[7,1-fg]pyrazolo[3,4-d][2,8]benzoxazacycloundecine-16-carboxylic acid-N-ethylethanamine Salt (Enantiomer 1)]: the IC50 in assay [1] (setting [5]) was 1.92 µM; in assay [3] (Homo sapiens, SU-DHL10, SUDHL10, 72 hours incubation), 1.2e-06 M.
Turning to `CCc1nn(CCN2CCOCC2)c2c1-c1c(Cl)ccc3c(CCCOc4cccc5cc(F)ccc45)c(C(=O)O)n(c13)Cc1ccccc1COC2` (single isomer, unassigned; enantiomer 1) [Example 52, (−)-3-Chloro-4-ethyl-17-{3-[(6-fluoronaphthalen-1-yl)oxy]propyl}-6-[2-(morpholin-4-yl)ethyl]-6,7,9,14-tetrahydroindolo[7,1-fg]pyrazolo[3,4-d][2,8]benzoxazacycloundecine-16-carboxylic Acid (Enantiomer 1)], the IC50 in assay [1] (setting [4]) amounted to 2.27 µM.
With `Cc1c2c(nn1C)COCc1ccccc1Cn1c(C(=O)O)c(CCCOc3cccc4cc(F)ccc34)c3ccc(F)c-2c31` (single isomer, unassigned; enantiomer 1) [Example 65, (−)-3-fluoro-17-{3-[(6-fluoronaphthalen-1-yl)oxy]propyl}-4,5-dimethyl-5,7,9,14-tetrahydroindolo[7,1-fg]pyrazolo[3,4-d][2,8]benzoxazacycloundecine-16-carboxylic acid-N-ethylethanamine Salt (Enantiomer 1)], the IC50 stood at 1.75 µM in assay [1] (setting [4]) and 2 µM in assay [1] (setting [5]).
For `Cc1c2c(nn1C)COCc1ccccc1Cn1c(C(=O)O)c(CCCOc3cccc4cc(F)ccc34)c3ccc(Cl)c-2c31` (single isomer, unassigned; enantiomer 2) [Example 50, (+)-3-Chloro-17-{3-[(6-fluoronaphthalen-1-yl)oxy]propyl}-4,5-dimethyl-5,7,9,14-tetrahydroindolo[7,1-fg]pyrazolo[3,4-d][2,8]benzoxazacycloundecine-16-carboxylic acid-N-ethylethanamine Salt (Enantiomer 2)], the IC50 stood at 2.82 µM in assay [1] (setting [4]) and 1.2e-06 M in assay [3] (SUDHL10, 72 hours incubation).
As to `CCc1c2c(nn1C)COCc1ccccc1Cn1c(C(=O)O)c(CCCOc3cccc4cc(F)ccc34)c3ccc(Cl)c-2c31` (single isomer, unassigned; enantiomer 1) [Example 55, (−)-3-Chloro-4-ethyl-17-{3-[(6-fluoronaphthalen-1-yl)oxy]propyl}-5-methyl-5,7,9,14-tetrahydro-indolo[7,1-fg]pyrazolo[3,4-d][2,8]benzoxazacycloundecine-16-carboxylic Acid N-ethylethanamine Salt (Enantiomer 1)], the IC50 in assay [1] (setting [6]) is 1.19 µM; in assay [2] (setting [7]), 2.39 µM.
The matching figures for `CCc1c2c(nn1C)COCc1ccccc1Cn1c(C(=O)O)c(CCCOc3cccc4cc(F)ccc34)c3ccc(Cl)c-2c31` (single isomer, unassigned; enantiomer 2) [Example 56, (+)-3-Chloro-4-ethyl-17-{3-[(6-fluoronaphthalen-1-yl)oxy]propyl}-5-methyl-5,7,9,14-tetrahydro-indolo[7,1-fg]pyrazolo[3,4-d][2,8]benzoxazacycloundecine-16-carboxylic Acid N-ethylethanamine Salt (Enantiomer 2)]: 4.2 µM and 10.9 µM.
With `Cc1c2c(nn1C)COCc1ccccc1Cn1c(C(=O)O)c(CCCOc3cccc4ccccc34)c3ccc(F)c-2c31` (single isomer, unassigned; enantiomer 1) [Example 68, (−)-3-Fluoro-4,5-dimethyl-17-{3-[(naphthalen-1-yl)oxy]propyl}-5,7,9,14-tetrahydroindolo[7,1-fg]pyrazolo[3,4-d][2,8]benzoxazacycloundecine-16-carboxylic acid-N-ethylethanamine Salt (Enantiomer 1)], the IC50 in assay [1] (setting [6]) was 4.4 µM and 4.89 µM.
As to `CCNCC.Cc1c2c(nn1C)COCc1ncccc1Cn1c(C(=O)O)c(CCCOc3cccc4ccccc34)c3ccc(Cl)c-2c31` (single isomer, unassigned; enantiomer 1) [Example 43, 3-Chloro-4,5-dimethyl-17-[3-(naphthalen-1-yloxy)propyl]-5,7,9,14-tetrahydropyrazolo-[4′,3′:9,10]pyrido[2′,3′:3,4][1,6]oxazacycloundecino[8,7,6-hi]indole-16-carboxylic acid-N-ethylethanamine Salt (Enantiomer 1)], the IC50 was 5.16 µM and 7.47 µM in assay [1] (setting [4]); 1.5e-06 M in assay [3] (SUDHL10, 72 hours incubation).

The record behind these values is US20210253598A1, “ARYL ANNULATED MACROCYCLIC INDOLE DERIVATIVES” (priority 2017, published 2021).
